The values below come from patent US10686136B2, “Hole transporting material, OLED display panel and electronic device comprising the same” (SHANGHAI TIANMA AM-OLED CO., LTD., priority 2016, dated 2020).

For data set [1] the following is noted: prior art material of CN103108859; cited from earlier work.
The conditions of data set [2]: cited from earlier work.
Data set [3] in a line: Hole mobility rate of the hole transporting material. Type of data set: physicochemical. As to conditions: hole transporting layer material.
A short description of a further data set: Solubility in NMP. In kind it is physicochemical. The conditions noted are these: NMP solvent.
[4] abbreviates: commercially available hole transporting layer material.

Converted amounts (≈) assume the structure as drawn.

`CC1(C)c2ccccc2-c2ccc(N(c3ccc4c(c3)C3(c5ccccc5-c5ccccc53)c3ccccc3-4)c3ccccc3-c3ccccc3)cc21`: in data set [1], the solubility entry was “good”. The mobility rate entry in data set [2] (prior art material of CN103108859) is reported as “higher”.

Regarding `c1ccc(-c2ccc(N(c3ccc(-c4ccccc4)cc3)c3ccc(-c4ccc(N(c5ccc(-c6ccccc6)cc5)c5ccc(-c6ccccc6)cc5)cc4)cc3)cc2)cc1` [Com. Example 1], the hole mobility rate in data set [3] is on record as 3×10^−4 cm^2/V·S.

As for `Cc1ccc(-c2ccc(N(c3ccc(-c4ccccc4)cc3)c3ccc(-c4ccc(N(c5ccc(-c6ccccc6)cc5)c5ccc(-c6ccc(C)cc6)cc5)cc4)cc3)cc2)cc1` [Com. Example 2], in data set [3], the hole mobility rate is 3.5×10^−4 cm^2/V·S. For the same compound, the “solubility in NMP” value in “Solubility in NMP” was determined as 2.2 g/L (≈ 2.68 mM).

For `c1ccc(-c2ccc(N(c3ccc(-c4ccccc4)cc3)c3ccc(-c4ccc(N(c5ccc(-c6ccccc6)cc5)c5ccc(-c6ccccc6)cc5)c5c4CCCC5)cc3)cc2)cc1` [Com. Example 3], the hole mobility rate in data set [3] is on record as 7×10^−5 cm^2/V·S.

Turning to `c1ccc(-c2ccc(N(c3ccc(-c4ccccc4)cc3)c3ccc(N(c4ccc(-c5ccccc5)cc4)c4ccc(-c5ccccc5)cc4)cc3)cc2)cc1` [Com. Example 4], in data set [3], the hole mobility rate was 2×10^−4 cm^2/V·S.

Regarding `Cc1ccc(-c2ccc(N(c3ccc(-c4ccccc4)cc3)c3ccc(-c4ccc(N(c5ccc(-c6ccccc6)cc5)c5ccc(-c6ccc(C)cc6)cc5)c5c4CCCC5)cc3)cc2)cc1` [Example 1], the hole mobility rate in data set [3] was 0.00041 cm²/(V·s). Further, in the data set “Solubility in NMP”, the “solubility in NMP” value is on record as 10 g/L (≈ 11.4 mM).

In the case of `Cc1cccc(-c2ccc(N(c3ccc(-c4cccc5c4CCCC5)cc3)c3ccc(-c4ccc(N(c5ccc(-c6cccc(C)c6)cc5)c5ccc(-c6cccc7c6CCCC7)cc5)c5c4CCCC5)cc3)cc2)c1` [Example 2], the hole mobility rate in data set [3] is reported as 2.1×10^−4 cm^2/V·S.

In the case of `Cc1cc(N(c2ccc(-c3ccccc3)cc2)c2ccc(-c3cccc4c3CCCC4)cc2)ccc1-c1ccc(N(c2ccc(-c3ccccc3)cc2)c2ccc(-c3cccc4c3CCCC4)cc2)cc1` [Example 3], the hole mobility rate in data set [3] is listed as 1.8×10^−4 cm^2/V·S.

As for `Cc1ccccc1-c1ccc(N(c2ccc(-c3ccccc3)cc2)c2ccc(-c3ccc(N(c4ccc(-c5ccccc5)cc4)c4ccc(-c5ccccc5C)c5c4CCCC5)c4c3CCCC4)cc2)c2c1CCCC2` [Example 4], the hole mobility rate in data set [3] is listed as 1.9×10^−4 cm^2/V·S.

Consider `c1ccc(-c2ccc(N(c3ccc(-c4ccccc4)cc3)c3ccc(N(c4ccc(-c5ccccc5)cc4)c4ccc(-c5ccccc5)cc4)cc3)cc2)cc1` [drawing 1], for which, in data set [2] (setting [4]), the lateral mobility rate entry is reported as “not very high” and the longitudinal mobility rate entry is reported as “higher”.
